± gives the expanded uncertainty stated by the source.
Assay: wn = mass fraction of the nth substance listed
Conditions: 288.15 K, 100 kPa, Liquid, Vibrating tube method

SMILES | mass density (w1 = 0.0924) [kg/m3] | mass density (w1 = 0.2601) [kg/m3]
O=S(=O)([O-])[O-].[K+].[K+] [potassium sulfate] + O | 1077.03 ± 1.2 | 
O=S(=O)([O-])[O-].[Li+].[Li+] [lithium sulfate] + O |  | 1237.48 ± 1.6
